According to patent US20230233569A1 (Revolution Medicines, Inc., priority 2020, published 2023):
Like-named read-outs stand apart in the source and are kept apart here.

How the values were obtained:
[1] = test system: NCI-H358 (K-Ras G12C); assay: CellTiter-Glo cell viability assay; assay type: cell-based; conditions: Homo sapiens, NCI-H358, 120 h
How it was run: (§1)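 Direct compound addition to plated cells; 5-day exposure; ~30 min RT equilibration; CellTiter-Glo luminescence. Normalization: (sample/avg DMSO)*100; 4-parameter logistic curve fit.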

[2] = test system: AsPC-1 (K-Ras G12D); assay: CellTiter-Glo cell viability assay; assay type: cell-based; conditions: Homo sapiens, ASPC1, 120 h
How it was run: as §1

[3] = test system: AsPC-1 (K-Ras G12D); assay: Potency assay: pERK; assay type: cell-based; conditions: Homo sapiens
[4] = target: KRAS G12V (Homo sapiens, UniProt P01116+P62937, G12V); assay: Ras-Raf disruption / FRET / MOA assay (BRAF RBD); assay type: biochemical; conditions: with Cyclophilin A
How it was run: (§2)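 Compound-induced Ras–Cyclophilin A ternary complex disrupting BRAF RBD binding, read as IC50 from reduced TR-FRET ratio relative to DMSO. Final: Ras-GMPPNP 12.5 nM, BRAF RBD 50 nM, Cyclophilin A 25 μM, top compound 30 μM (3-fold, 10 points); 3 h at 25 °C, then 1.5 h with detection antibodies.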

[5] = target: KRAS G13D (Homo sapiens, UniProt P01116+P62937, G13D); assay: Ras-Raf disruption / FRET / MOA assay (BRAF RBD); assay type: biochemical; conditions: with Cyclophilin A
How it was run: as §2

[6] = target: KRAS WT (Homo sapiens, UniProt P01116+P62937); assay: Ras-Raf disruption / FRET / MOA assay (BRAF RBD); assay type: biochemical; conditions: with Cyclophilin A
How it was run: as §2

[7] = target: KRAS G12D (Homo sapiens, UniProt P01116+P62937, G12D); assay: Ras-Raf disruption / FRET / MOA assay (BRAF RBD); assay type: biochemical; conditions: with Cyclophilin A
How it was run: as §2

[8] = target: KRAS G12S (Homo sapiens, UniProt P01116+P62937, G12S); assay: Ras-Raf disruption / FRET / MOA assay (BRAF RBD); assay type: biochemical; conditions: with Cyclophilin A
How it was run: as §2

[9] = target: NRAS G12C (Homo sapiens, UniProt P01111+P62937, G12C); assay: Ras-Raf disruption / FRET / MOA assay (BRAF RBD); assay type: biochemical
How it was run: as §2

[10] = target: KRAS G13C (Homo sapiens, UniProt P01116+P62937, G13C); assay: Ras-Raf disruption / FRET / MOA assay (BRAF RBD); assay type: biochemical; conditions: with Cyclophilin A
How it was run: as §2

[11] = target: KRAS G12C (Homo sapiens, UniProt P01116+P62937, G12C); assay: Ras-Raf disruption / FRET / MOA assay (BRAF RBD); assay type: biochemical; conditions: with Cyclophilin A
How it was run: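 TR-FRET read-out after 1.5 h with anti-His Eu-W1024 (10 nM) and anti-GST APC (50 nM), following 3 h at 25 °C of compound (top 30 μM, 3-fold, 10 points) with 25 μM Cyclophilin A, 12.5 nM GMPPNP-loaded K-Ras G12C and 50 nM BRAF RBD; IC50 reported.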

[12] = read-out: H358 Cell Viability assay data IC50, K-Ras G12C, 5-day treatment
[13] = read-out: AsPC-1 Cell Viability assay data IC50, K-Ras G12D, 5-day treatment
[14] = KRAS G12V FRET data IC50, Ras-Raf disruption
[15] = KRAS G13D FRET data IC50, Ras-Raf disruption
[16] = KRAS WT FRET data IC50, Ras-Raf disruption
[17] = KRAS G12D FRET data IC50, Ras-Raf disruption
[18] = KRAS G12S FRET data IC50, Ras-Raf disruption
[19] = NRAS G12C FRET data IC50, NRAS G12C
[20] = KRAS G13C FRET data IC50, Ras-Raf disruption
[21] = KRAS G12C FRET data IC50, Ras-Raf disruption

Sequence of KRAS WT (P01116 1-169 isoform P01116-2 limits assumed): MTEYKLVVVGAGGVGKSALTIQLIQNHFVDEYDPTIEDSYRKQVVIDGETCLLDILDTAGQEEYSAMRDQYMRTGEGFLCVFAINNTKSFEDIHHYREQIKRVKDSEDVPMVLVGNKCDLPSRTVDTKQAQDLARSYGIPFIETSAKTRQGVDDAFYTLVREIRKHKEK
Sequence of KRAS WT (P62937 whole entry): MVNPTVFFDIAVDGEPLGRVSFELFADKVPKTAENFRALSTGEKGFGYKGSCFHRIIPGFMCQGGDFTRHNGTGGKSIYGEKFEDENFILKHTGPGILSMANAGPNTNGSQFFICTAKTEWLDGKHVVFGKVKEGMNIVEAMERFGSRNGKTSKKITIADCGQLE
Sequence of KRAS G13D (P01116 1-169 isoform P01116-2 G13D limits assumed): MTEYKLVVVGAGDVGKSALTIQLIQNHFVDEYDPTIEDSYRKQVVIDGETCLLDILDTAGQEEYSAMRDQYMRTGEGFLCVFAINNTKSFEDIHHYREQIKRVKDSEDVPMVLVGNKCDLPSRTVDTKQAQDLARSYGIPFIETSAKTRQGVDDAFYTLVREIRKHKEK
Sequence of KRAS G13D (P62937 whole entry): as the sequence (P62937 whole entry) above
Sequence of KRAS G13C (P01116 1-169 isoform P01116-2 G13C limits assumed): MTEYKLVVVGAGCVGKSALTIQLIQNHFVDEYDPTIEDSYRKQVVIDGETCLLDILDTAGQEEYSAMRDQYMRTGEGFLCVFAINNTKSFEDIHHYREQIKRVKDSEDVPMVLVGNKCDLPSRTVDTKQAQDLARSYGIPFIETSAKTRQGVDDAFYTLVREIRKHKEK
Sequence of KRAS G13C (P62937 whole entry): as the sequence (P62937 whole entry) above
Sequence of KRAS G12C (P01116 1-169 isoform P01116-2 G12C limits assumed): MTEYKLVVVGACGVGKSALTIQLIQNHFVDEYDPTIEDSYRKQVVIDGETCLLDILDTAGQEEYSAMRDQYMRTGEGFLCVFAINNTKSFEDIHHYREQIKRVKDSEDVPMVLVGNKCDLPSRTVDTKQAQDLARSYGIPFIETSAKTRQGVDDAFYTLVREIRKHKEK
Sequence of KRAS G12C (P62937 whole entry): as the sequence (P62937 whole entry) above
Sequence of KRAS G12V (P01116 1-169 isoform P01116-2 G12V limits assumed): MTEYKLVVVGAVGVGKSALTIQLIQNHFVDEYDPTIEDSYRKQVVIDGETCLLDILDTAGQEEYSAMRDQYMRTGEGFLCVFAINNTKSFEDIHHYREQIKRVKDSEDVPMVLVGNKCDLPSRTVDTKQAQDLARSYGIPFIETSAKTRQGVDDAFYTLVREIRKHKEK
Sequence of KRAS G12V (P62937 whole entry): as the sequence (P62937 whole entry) above
Sequence of KRAS G12D (P01116 1-169 isoform P01116-2 G12D limits assumed): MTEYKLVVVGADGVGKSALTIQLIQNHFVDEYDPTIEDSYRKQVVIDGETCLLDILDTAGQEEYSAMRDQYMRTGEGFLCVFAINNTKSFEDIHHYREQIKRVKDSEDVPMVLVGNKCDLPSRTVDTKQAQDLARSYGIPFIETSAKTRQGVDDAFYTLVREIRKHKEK
Sequence of KRAS G12D (P62937 whole entry): as the sequence (P62937 whole entry) above
Sequence of KRAS G12S (P01116 1-169 isoform P01116-2 G12S limits assumed): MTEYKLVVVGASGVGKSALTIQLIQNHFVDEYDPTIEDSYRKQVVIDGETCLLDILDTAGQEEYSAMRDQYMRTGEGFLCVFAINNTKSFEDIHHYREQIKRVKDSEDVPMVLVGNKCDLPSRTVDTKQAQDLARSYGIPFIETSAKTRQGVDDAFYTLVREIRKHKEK
Sequence of KRAS G12S (P62937 whole entry): as the sequence (P62937 whole entry) above
Sequence of NRAS G12C (P01111 whole entry G12C): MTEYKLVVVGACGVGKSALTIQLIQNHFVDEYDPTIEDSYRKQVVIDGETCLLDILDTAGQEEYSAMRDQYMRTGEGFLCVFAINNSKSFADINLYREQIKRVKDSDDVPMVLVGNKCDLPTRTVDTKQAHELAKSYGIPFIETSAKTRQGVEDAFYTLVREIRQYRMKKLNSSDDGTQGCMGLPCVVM
Sequence of NRAS G12C (P62937 whole entry): as the sequence (P62937 whole entry) above

Row | Compound | IC50 [1, 12] [nM] | IC50 [2, 13] [nM] | EC50 ([3]; ASPC1, read-out: pERK EC50) [nM] | IC50 [4, 14] [nM] | IC50 [5, 15] [nM] | IC50 [6, 16] [nM] | IC50 [7, 17] [nM] | IC50 [8, 18] [nM] | IC50 [9, 19] [nM] | IC50 [10, 20] [nM] | IC50 [11, 21] [nM] | also measured
1 | CCn1c(-c2cccnc2[C@H](C)OC)c2c3cc(ccc31)-c1cc(O)cc(c1)C[C@H](NC(=O)[C@H](C(C)C)N(C)C(=O)CN(C)C(=O)[C@@H]1N[C@H]1COC)C(=O)N1CCC[C@H](N1)C(=O)OCC(C)(C)C2 [Example 85] | 10 to 100 | 1000 to 10000 | < 5000 | 10 to 100 | 10 to 100 | 10 to 100 | 100 to 1000 | 10 to 100 | 10 to 100 | < 10 | 10 to 100 | –
2 | CCn1c(-c2cccnc2[C@H](C)OC)c2c3cc(ccc31)-c1cccc(c1)C[C@H](NC(=O)[C@H](C(C)C)N(C)C(=O)CN(C)C(=O)[C@H]1CN1)C(=O)N1CCC[C@H](N1)C(=O)OCC(C)(C)C2 [Example 107] | 100 to 1000 | 1000 to 10000 | < 5000 | 1000 to 10000 | 1000 to 10000 | 1000 to 10000 | 1000 to 10000 | 1000 to 10000 | 100 to 1000 | 100 to 1000 | 100 to 1000 | –
3 | CCn1c(-c2cccnc2[C@H](C)OC)c2c3cc(ccc31)-c1cc(O)cc(c1)C[C@H](NC(=O)[C@H](C(C)C)N(C)C(=O)CN(C)C(=O)[C@H]1CN1C(C)C)C(=O)N1CCC[C@H](N1)C(=O)OCC(C)(C)C2 (some centres unmarked) [Example 142] | < 10 | 100 to 1000 | < 5000 | 100 to 1000 | 100 to 1000 | 100 to 1000 | 100 to 1000 | 10 to 100 | < 10 | 10 to 100 | < 10 | –
4 | CCn1c(-c2cccnc2[C@H](C)OC)c2c3cc(ccc31)-c1cc(O)cc(c1)C[C@H](NC(=O)[C@H](C(C)C)N(C)C(=O)CN(C)C(=O)[C@H]1CN1Cc1ccccc1F)C(=O)N1CCC[C@H](N1)C(=O)OCC(C)(C)C2 (some centres unmarked) [Example 155] | < 10 | 100 to 1000 | < 5000 | 10 to 100 | 100 to 1000 | 10 to 100 | 100 to 1000 | 10 to 100 | < 10 | 10 to 100 | 10 to 100 | –
5 | CCn1c(-c2cnccc2COC)c2c3cc(ccc31)-c1cc(O)cc(c1)C[C@H](NC(=O)[C@H](C(C)C)N(C)C(=O)CN(C)C(=O)[C@@H]1N[C@@H]1C(=O)OC)C(=O)N1CCC[C@H](N1)C(=O)OCC(C)(C)C2 [Example 49] | 1000 to 10000 | 1000 to 10000 | < 5000 | 100 to 1000 | 100 to 1000 | 100 to 1000 | 100 to 1000 | 100 to 1000 | 10 to 100 | 10 to 100 | 10 to 100 | –
6 | CCn1c(-c2cccnc2[C@H](C)OC)c2c3cc(ccc31)-c1cc(O)cc(c1)C[C@H](NC(=O)[C@H](C(C)C)N(C)C(=O)CN(C)C(=O)[C@@H]1N[C@@H]1C1CC1)C(=O)N1CCC[C@H](N1)C(=O)OCC(C)(C)C2 [Example 133] | 10 to 100 | 10 to 100 | < 5000 | 10 to 100 | 10 to 100 | 10 to 100 | 10 to 100 | 10 to 100 | 10 to 100 | 10 to 100 | 10 to 100 | –
7 | CCn1c(-c2cccnc2[C@H](C)OC)c2c3cc(ccc31)-c1cc(O)cc(c1)C[C@H](NC(=O)[C@H](C1CCCC1)N(C)C(=O)[C@H]1CCN(C[C@H]3CN3)C1=O)C(=O)N1CCC[C@H](N1)C(=O)OCC(C)(C)C2 [Example 58] | – | – | – | – | – | – | – | – | – | – | – | IC50 ([1]; K-Ras G12C, 5-day treatment, read-out: H358 Cell Viability assay data IC50): < 10 nM; IC50 ([2]; K-Ras G12D, 5-day treatment, read-out: AsPC-1 Cell Viability assay data IC50): 100 to 1000 nM; EC50 ([3]; ASPC1, AsPC-1 KRAS G12D, read-out: pERK EC50): < 5000 nM; IC50 ([4]; Ras-Raf disruption, read-out: KRAS G12V FRET data IC50): 10 to 100 nM; IC50 ([5]; Ras-Raf disruption, read-out: KRAS G13D FRET data IC50): 10 to 100 nM; IC50 ([6]; Ras-Raf disruption, read-out: KRAS WT FRET data IC50): 10 to 100 nM; IC50 ([7]; Ras-Raf disruption, read-out: KRAS G12D FRET data IC50): 100 to 1000 nM; IC50 ([8]; Ras-Raf disruption, read-out: KRAS G12S FRET data IC50): 10 to 100 nM; IC50 ([9]; NRAS G12C, read-out: NRAS G12C FRET data IC50): < 10 nM; IC50 ([10]; Ras-Raf disruption, read-out: KRAS G13C FRET data IC50): 10 to 100 nM; IC50 ([11]; Ras-Raf disruption, read-out: KRAS G12C FRET data IC50): < 10 nM
8 | CCn1c(-c2cccnc2[C@H](C)OC)c2c3cc(ccc31)-c1cc(O)cc(c1)C[C@H](NC(=O)[C@H](C(C)C)N(C)C(=O)[C@H](C)N(C)C(=O)[C@H]1CN1)C(=O)N1CCC[C@H](N1)C(=O)OCC(C)(C)C2 [Example 102] | 10 to 100 | 100 to 1000 | < 5000 | 100 to 1000 | 100 to 1000 | 10 to 100 | 100 to 1000 | 100 to 1000 | 10 to 100 | 10 to 100 | 10 to 100 | –
9 | CCn1c(-c2cccnc2[C@H](C)OC)c2c3cc(ccc31)-c1cc(O)cc(c1)C[C@H](NC(=O)[C@H](C(C)C)N(C)C(=O)CN(C)C(=O)[C@@H]1CN1CCCOC)C(=O)N1CCC[C@H](N1)C(=O)OCC(C)(C)C2 (some centres unmarked) [Example 137] | < 10 | 100 to 1000 | < 5000 | 10 to 100 | 10 to 100 | 10 to 100 | 10 to 100 | 10 to 100 | < 10 | 10 to 100 | < 10 | –
10 | CCn1c(-c2cccnc2[C@H](C)OC)c2c3cc(ccc31)-c1cc(O)cc(c1)C[C@H](NC(=O)[C@H](C(C)C)N(C)C(=O)CN(C)C(=O)[C@@H]1CN1C(C)C)C(=O)N1CCC[C@H](N1)C(=O)OCC(C)(C)C2 (some centres unmarked) [Example 148] | < 10 | 100 to 1000 | < 5000 | 10 to 100 | 10 to 100 | 10 to 100 | 10 to 100 | 10 to 100 | < 10 | 10 to 100 | < 10 | –
11 | CCn1c(-c2cccnc2[C@H](C)OC)c2c3cc(ccc31)-c1cc(O)cc(c1)C[C@H](NC(=O)[C@H](C1CCCC1)N(C)C(=O)CN(C)C(=O)[C@H]1CN1)C(=O)N1CCC[C@H](N1)C(=O)OCC(C)(C)C2 [Example 95] | < 10 | 10 to 100 | < 5000 | 10 to 100 | 10 to 100 | 10 to 100 | 10 to 100 | 10 to 100 | < 10 | 10 to 100 | < 10 | –
12 | CCn1c(-c2cccnc2[C@H](C)OC)c2c3cc(ccc31)-c1cc(O)cc(c1)C[C@H](NC(=O)[C@H](C(C)C)N(C)C(=O)CN(C)C(=O)[C@H]1CN1Cc1ccccc1CO)C(=O)N1CCC[C@H](N1)C(=O)OCC(C)(C)C2 (some centres unmarked) [Example 156] | < 10 | 100 to 1000 | < 5000 | 10 to 100 | 100 to 1000 | 10 to 100 | 100 to 1000 | 10 to 100 | < 10 | 10 to 100 | < 10 | –
13 | CCn1c(-c2cccnc2[C@H](C)OC)c2c3cc(ccc31)-c1cc(O)cc(c1)C[C@H](NC(=O)[C@H](C(C)C)N(C)C(=O)CN(C)C(=O)[C@@H]1CN1CCOC)C(=O)N1CCC[C@H](N1)C(=O)OCC(C)(C)C2 (some centres unmarked) [Example 160] | < 10 | 100 to 1000 | < 5000 | 10 to 100 | 100 to 1000 | 10 to 100 | 100 to 1000 | 10 to 100 | < 10 | 10 to 100 | 10 to 100 | –
